The conditions of the series: nicotine concentration increased from 100 microgram/mL to 14,000 microgram/mL.

SMILES strings stand for the structures.

From patent publication US12433881B2, “Nicotine tablet” (Fertin Pharma A/S, priority 2017, dated 2025) come the findings set out here.

For `CN1CCCC1c1cccnc1` (stereo not shown) [nicotine], the “change of permeability of nicotine across the buccal mucosa” value is reported as “decrease of about a factor of two”.
